From article PMC4537572, “Cellobionic acid utilization: from Neurospora crassa to Saccharomyces cerevisiae” (Biotechnology for Biofuels, 2015)

Tests used:
[1] = target: T1, S. cerevisiae gluconokinase (YDR248C) (Saccharomyces cerevisiae, UniProt Q03786); assay: gluconokinase assay, HPAEC of products; type: biochemical; details: 1 mM gluconate, 5 mM ATP, 0.2 μM enzyme, 1x PBS, 30 °C, 30 min
T1 construct: full ORF with C-terminal His6-tag, expressed in and purified from S. cerevisiae
T1 sequence (Q03786 1-193): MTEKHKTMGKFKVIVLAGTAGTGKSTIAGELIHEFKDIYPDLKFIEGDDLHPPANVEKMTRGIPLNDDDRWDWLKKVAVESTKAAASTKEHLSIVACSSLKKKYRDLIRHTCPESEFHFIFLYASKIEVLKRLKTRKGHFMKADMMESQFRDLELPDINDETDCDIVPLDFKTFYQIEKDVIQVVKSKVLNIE

[2] = target: T2, CBT-1 (NCU05853) (Neurospora crassa, UniProt Q7S555); assay: yeast cell-based uptake assay, HPAEC of remaining sugar; details: pH 6.0, 30 °C, 30 min; 5 mM MES, 100 mM NaCl; S. cerevisiae cells expressing the transporter
T2 construct: expressed in S. cerevisiae from plasmid pRS426_NCU05853
T2 sequence (Q7S555 entry or part of it): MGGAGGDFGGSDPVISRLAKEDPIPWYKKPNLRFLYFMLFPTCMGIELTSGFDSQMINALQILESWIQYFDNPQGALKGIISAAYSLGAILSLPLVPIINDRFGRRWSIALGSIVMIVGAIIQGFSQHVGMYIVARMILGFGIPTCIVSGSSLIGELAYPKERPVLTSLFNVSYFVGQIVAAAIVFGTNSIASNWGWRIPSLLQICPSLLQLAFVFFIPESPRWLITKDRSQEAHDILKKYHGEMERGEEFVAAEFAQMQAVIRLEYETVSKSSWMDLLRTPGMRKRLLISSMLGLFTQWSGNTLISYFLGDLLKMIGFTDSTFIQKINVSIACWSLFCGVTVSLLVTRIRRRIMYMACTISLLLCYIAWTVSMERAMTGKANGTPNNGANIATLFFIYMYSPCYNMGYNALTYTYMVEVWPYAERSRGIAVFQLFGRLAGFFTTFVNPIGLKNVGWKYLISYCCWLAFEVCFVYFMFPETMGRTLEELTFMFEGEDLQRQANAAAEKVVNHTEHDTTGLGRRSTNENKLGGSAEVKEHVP
Source text: yeast cell-based uptake assay, HPAEC of remaining sugar on CBT-1 (NCU05853) | only NCU05853 […] was capable of transporting cellobionic acid into the cell

[3] = target: CAP (NCU09425) (Neurospora crassa, UniProt Q7S0S2); details: 2 mM cellobionate, 0.5 μM enzyme, 1x PBS, 30 °C, 30 min
CAP (NCU09425), sequence (Q7S0S2 whole entry): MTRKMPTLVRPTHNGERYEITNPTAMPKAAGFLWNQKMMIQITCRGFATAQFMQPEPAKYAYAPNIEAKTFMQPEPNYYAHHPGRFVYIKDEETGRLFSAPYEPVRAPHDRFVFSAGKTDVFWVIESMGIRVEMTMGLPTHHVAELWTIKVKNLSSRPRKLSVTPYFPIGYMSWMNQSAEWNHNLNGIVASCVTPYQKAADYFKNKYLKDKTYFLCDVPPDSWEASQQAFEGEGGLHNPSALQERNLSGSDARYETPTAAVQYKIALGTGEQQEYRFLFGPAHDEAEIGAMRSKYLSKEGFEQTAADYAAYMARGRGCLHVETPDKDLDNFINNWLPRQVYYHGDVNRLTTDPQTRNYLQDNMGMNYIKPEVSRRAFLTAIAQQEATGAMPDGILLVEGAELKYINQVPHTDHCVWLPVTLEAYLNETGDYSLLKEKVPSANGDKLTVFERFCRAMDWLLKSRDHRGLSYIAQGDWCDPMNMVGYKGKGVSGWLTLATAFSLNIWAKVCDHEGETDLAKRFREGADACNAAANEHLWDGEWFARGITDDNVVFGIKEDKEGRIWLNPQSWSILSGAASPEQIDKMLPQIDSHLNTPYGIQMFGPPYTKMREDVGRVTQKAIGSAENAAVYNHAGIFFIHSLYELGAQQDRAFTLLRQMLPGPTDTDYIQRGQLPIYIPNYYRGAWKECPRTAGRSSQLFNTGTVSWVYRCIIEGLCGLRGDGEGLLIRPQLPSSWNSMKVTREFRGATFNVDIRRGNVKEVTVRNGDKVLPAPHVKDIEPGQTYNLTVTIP

| Compound | gluconokinase assay, HPAEC of products [1] | yeast cell-based uptake assay, HPAEC of remaining sugar [2] | phosphorolysis, HPAEC of products [3] |
| --- | --- | --- | --- |
| O=C(O)[C@H](O)[C@@H](O)[C@H](O)[C@H](O)CO [A1, gluconic acid] | YDR248C has gluconokinase activity in vitro | – | – |
| O=C(O)[C@H](O)[C@@H](O)[C@H](O[C@@H]1O[C@H](CO)[C@@H](O)[C@H](O)[C@H]1O)[C@H](O)CO [A2, cellobionic acid] | – | only NCU05853 [...] was capable of transporting cellobionic acid into the cell | specifically cleaved cellobionic acid to gluconic acid and glucose 1-phosphate |
